Source: PubChem BioAssay AID1918932 (Molecular Pharmacology Branch, DTP, NCI, 2023)

Tested on: 171881-019-R-J1-PDC complex spheroid viability
Assay: Anticancer human tumor 171881-019-R-J1-PDC patient-derived invasive breast carcinoma cell line growth inhibition
Details: for IC50: curve of first compound; for viability, T/C: stronger effect = lower value
Outline: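 Drug combinations with the LSD1 inhibitor iadademstat tested on tumor cells co-cultured as spheroids with endothelial cells and mesenchymal stem cells. Concentrations descended in half-log increments from clinical Cmax or 10 microM.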

[1] = second compound 0.1 µM, first compound 0.0316 µM
[2] = second compound 0.1 µM, first compound 0.1 µM
[3] = second compound 0.1 µM, first compound 0.316 µM
[4] = second compound 0.1 µM, first compound 1 µM
[5] = second compound 0.1 µM, first compound 3.16 µM
[6] = second compound 0.1 µM, first compound 10 µM
[7] = second compound 0.316 µM, first compound 0.0316 µM
[8] = second compound 0.316 µM, first compound 0.1 µM
[9] = second compound 0.316 µM, first compound 0.316 µM
[10] = second compound 0.316 µM, first compound 1 µM
[11] = second compound 0.316 µM, first compound 3.16 µM
[12] = second compound 0.316 µM, first compound 10 µM
[13] = second compound 1 µM, first compound 0.0316 µM
[14] = second compound 1 µM, first compound 0.1 µM
[15] = second compound 1 µM, first compound 0.316 µM
[16] = second compound 1 µM, first compound 1 µM
[17] = second compound 1 µM, first compound 3.16 µM
[18] = second compound 1 µM, first compound 10 µM
[19] = second compound 3.16 µM, first compound 0.0316 µM
[20] = second compound 3.16 µM, first compound 0.1 µM
[21] = second compound 3.16 µM, first compound 0.316 µM
[22] = second compound 3.16 µM, first compound 1 µM
[23] = second compound 3.16 µM, first compound 3.16 µM
[24] = second compound 3.16 µM, first compound 10 µM
[25] = second compound 10 µM, first compound 0.0316 µM
[26] = second compound 10 µM, first compound 0.1 µM
[27] = second compound 10 µM, first compound 0.316 µM
[28] = second compound 10 µM, first compound 1 µM
[29] = second compound 10 µM, first compound 3.16 µM
[30] = second compound 10 µM, first compound 10 µM
[31] = second compound 0.1 µM, first compound 0.00949 µM
[32] = second compound 0.1 µM, first compound 0.03 µM
[33] = second compound 0.1 µM, first compound 0.0949 µM
[34] = second compound 0.1 µM, first compound 0.3 µM
[35] = second compound 0.316 µM, first compound 0.00949 µM
[36] = second compound 0.316 µM, first compound 0.03 µM
[37] = second compound 0.316 µM, first compound 0.0949 µM
[38] = second compound 0.316 µM, first compound 0.3 µM
[39] = second compound 1 µM, first compound 0.00949 µM
[40] = second compound 1 µM, first compound 0.03 µM
[41] = second compound 1 µM, first compound 0.0949 µM
[42] = second compound 1 µM, first compound 0.3 µM
[43] = second compound 3.16 µM, first compound 0.00949 µM
[44] = second compound 3.16 µM, first compound 0.03 µM
[45] = second compound 3.16 µM, first compound 0.0949 µM
[46] = second compound 3.16 µM, first compound 0.3 µM
[47] = second compound 10 µM, first compound 0.00949 µM
[48] = second compound 10 µM, first compound 0.03 µM
[49] = second compound 10 µM, first compound 0.0949 µM
[50] = second compound 10 µM, first compound 0.3 µM
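Note: spheroids exposed to agents for 7 days after 3 days growth.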

CC1(C)CCC(CN2CCN(c3ccc(C(=O)NS(=O)(=O)c4ccc(NCC5CCOCC5)c([N+](=O)[O-])c4)c(Oc4cnc5[nH]ccc5c4)c3)CC2)=C(c2ccc(Cl)cc2)C1 + NC1CC1c1ccc(-c2cccc(O)c2)cc1
IC50 (second compound 0.1 µM): 1.41 µM | IC50 (second compound 0.316 µM): 1.49 µM | IC50 (second compound 1 µM): 1.45 µM | IC50 (second compound 3.16 µM): 1.45 µM | IC50 (second compound 10 µM): 1.3 µM | viability, T/C [1]: 101% | viability, T/C [2]: 97.9% | viability, T/C [3]: 87.8% | viability, T/C [4]: 63% | viability, T/C [5]: 21.7% | viability, T/C [6]: 9.08% | viability, T/C [7]: 103% | viability, T/C [8]: 95.7% | viability, T/C [9]: 92.3% | viability, T/C [10]: 64.4% | viability, T/C [11]: 22.9% | viability, T/C [12]: 4.28% | viability, T/C [13]: 103% | viability, T/C [14]: 102% | viability, T/C [15]: 88.4% | viability, T/C [16]: 64.2% | viability, T/C [17]: 22.3% | viability, T/C [18]: 4% | viability, T/C [19]: 94.5% | viability, T/C [20]: 92.7% | viability, T/C [21]: 86.3% | viability, T/C [22]: 63.2% | viability, T/C [23]: 22.8% | viability, T/C [24]: 4.22% | viability, T/C [25]: 84.5% | viability, T/C [26]: 82.5% | viability, T/C [27]: 77.1% | viability, T/C [28]: 59% | viability, T/C [29]: 21.2% | viability, T/C [30]: 3.96%

CC1COCCN1c1cc(C2(S(C)(=N)=O)CC2)nc(-c2ccnc3[nH]ccc23)n1 (stereo not given) + NC1CC1c1ccc(-c2cccc(O)c2)cc1
IC50 (second compound 0.1 µM): 1.37 µM | IC50 (second compound 0.316 µM): 1.45 µM | IC50 (second compound 1 µM): 1.47 µM | IC50 (second compound 3.16 µM): 1.41 µM | IC50 (second compound 10 µM): 1.15 µM | viability, T/C [1]: 103% | viability, T/C [2]: 102% | viability, T/C [3]: 97.9% | viability, T/C [4]: 59.6% | viability, T/C [5]: 22.3% | viability, T/C [6]: 9.45% | viability, T/C [7]: 106% | viability, T/C [8]: 103% | viability, T/C [9]: 99.3% | viability, T/C [10]: 61.1% | viability, T/C [11]: 24.7% | viability, T/C [12]: 9.56% | viability, T/C [13]: 103% | viability, T/C [14]: 104% | viability, T/C [15]: 91.1% | viability, T/C [16]: 63.5% | viability, T/C [17]: 24.3% | viability, T/C [18]: 9.48% | viability, T/C [19]: 99.5% | viability, T/C [20]: 104% | viability, T/C [21]: 96.9% | viability, T/C [22]: 61.5% | viability, T/C [23]: 21.8% | viability, T/C [24]: 8.64% | viability, T/C [25]: 86.4% | viability, T/C [26]: 87.7% | viability, T/C [27]: 81.6% | viability, T/C [28]: 53.3% | viability, T/C [29]: 21.1% | viability, T/C [30]: 8.98%

CCN(c1cc(-c2ccc(CN3CCOCC3)cc2)cc(C(=O)NCc2c(C)cc(C)[nH]c2=O)c1C)C1CCOCC1 + NC1CC1c1ccc(-c2cccc(O)c2)cc1
IC50 (second compound 0.1 µM): 2.13 µM | IC50 (second compound 0.316 µM): 2.05 µM | IC50 (second compound 1 µM): 1.84 µM | IC50 (second compound 3.16 µM): 1.51 µM | IC50 (second compound 10 µM): 1.18 µM | viability, T/C [31]: 102% | viability, T/C [32]: 109% | viability, T/C [33]: 102% | viability, T/C [34]: 84.8% | viability, T/C (second compound 0.1 µM, first compound 0.949 µM): 68% | viability, T/C (second compound 0.1 µM, first compound 3 µM): 42.7% | viability, T/C [35]: 102% | viability, T/C [36]: 107% | viability, T/C [37]: 105% | viability, T/C [38]: 88.4% | viability, T/C (second compound 0.316 µM, first compound 0.949 µM): 66.8% | viability, T/C (second compound 0.316 µM, first compound 3 µM): 42% | viability, T/C [39]: 99.3% | viability, T/C [40]: 108% | viability, T/C [41]: 96.6% | viability, T/C [42]: 74.9% | viability, T/C (second compound 1 µM, first compound 0.949 µM): 61% | viability, T/C (second compound 1 µM, first compound 3 µM): 43% | viability, T/C [43]: 96% | viability, T/C [44]: 91.7% | viability, T/C [45]: 90.6% | viability, T/C [46]: 75.2% | viability, T/C (second compound 3.16 µM, first compound 0.949 µM): 59% | viability, T/C (second compound 3.16 µM, first compound 3 µM): 37.6% | viability, T/C [47]: 78.5% | viability, T/C [48]: 77.4% | viability, T/C [49]: 82.2% | viability, T/C [50]: 60.2% | viability, T/C (second compound 10 µM, first compound 0.949 µM): 55.7% | viability, T/C (second compound 10 µM, first compound 3 µM): 38.8%

Cn1ncnc1C1c2n[nH]c(=O)c3cc(F)cc(c23)NC1c1ccc(F)cc1 (stereo not given) + NC1CC1c1ccc(-c2cccc(O)c2)cc1
IC50 (second compound 0.1 µM): > 0.1 µM | IC50 (second compound 0.316 µM): > 0.1 µM | IC50 (second compound 1 µM): > 0.1 µM | IC50 (second compound 3.16 µM): > 0.1 µM | IC50 (second compound 10 µM): > 0.1 µM | viability, T/C (second compound 0.1 µM, first compound 0.000316 µM): 105% | viability, T/C (second compound 0.1 µM, first compound 0.001 µM): 106% | viability, T/C (second compound 0.1 µM, first compound 0.00316 µM): 107% | viability, T/C (second compound 0.1 µM, first compound 0.01 µM): 104% | viability, T/C [1]: 105% | viability, T/C [2]: 102% | viability, T/C (second compound 0.316 µM, first compound 0.000316 µM): 106% | viability, T/C (second compound 0.316 µM, first compound 0.001 µM): 111% | viability, T/C (second compound 0.316 µM, first compound 0.00316 µM): 109% | viability, T/C (second compound 0.316 µM, first compound 0.01 µM): 108% | viability, T/C [7]: 108% | viability, T/C [8]: 102% | viability, T/C (second compound 1 µM, first compound 0.000316 µM): 105% | viability, T/C (second compound 1 µM, first compound 0.001 µM): 106% | viability, T/C (second compound 1 µM, first compound 0.00316 µM): 111% | viability, T/C (second compound 1 µM, first compound 0.01 µM): 108% | viability, T/C [13]: 103% | viability, T/C [14]: 103% | viability, T/C (second compound 3.16 µM, first compound 0.000316 µM): 97.2% | viability, T/C (second compound 3.16 µM, first compound 0.001 µM): 104% | viability, T/C (second compound 3.16 µM, first compound 0.00316 µM): 101% | viability, T/C (second compound 3.16 µM, first compound 0.01 µM): 102% | viability, T/C [19]: 98.6% | viability, T/C [20]: 96.8% | viability, T/C (second compound 10 µM, first compound 0.000316 µM): 85.3% | viability, T/C (second compound 10 µM, first compound 0.001 µM): 91.2% | viability, T/C (second compound 10 µM, first compound 0.00316 µM): 90.8% | viability, T/C (second compound 10 µM, first compound 0.01 µM): 83% | viability, T/C [25]: 83.3% | viability, T/C [26]: 81.3%

Nc1ncn(C2CC(O)C(CO)S2)c(=O)n1 (stereo not given) + NC1CC1c1ccc(-c2cccc(O)c2)cc1
IC50 (second compound 0.1 µM): 0.0939 µM | IC50 (second compound 0.316 µM): 0.119 µM | IC50 (second compound 1 µM): 0.102 µM | IC50 (second compound 3.16 µM): 0.0993 µM | IC50 (second compound 10 µM): 0.0802 µM | viability, T/C (second compound 0.1 µM, first compound 0.000949 µM): 101% | viability, T/C (second compound 0.1 µM, first compound 0.003 µM): 106% | viability, T/C [31]: 102% | viability, T/C [32]: 75.3% | viability, T/C [33]: 52.3% | viability, T/C [34]: 34.4% | viability, T/C (second compound 0.316 µM, first compound 0.000949 µM): 111% | viability, T/C (second compound 0.316 µM, first compound 0.003 µM): 106% | viability, T/C [35]: 101% | viability, T/C [36]: 75.8% | viability, T/C [37]: 56.2% | viability, T/C [38]: 32.1% | viability, T/C (second compound 1 µM, first compound 0.000949 µM): 108% | viability, T/C (second compound 1 µM, first compound 0.003 µM): 95.7% | viability, T/C [39]: 98.1% | viability, T/C [40]: 76.8% | viability, T/C [41]: 51.4% | viability, T/C [42]: 30.3% | viability, T/C (second compound 3.16 µM, first compound 0.000949 µM): 95.1% | viability, T/C (second compound 3.16 µM, first compound 0.003 µM): 90.8% | viability, T/C [43]: 88.7% | viability, T/C [44]: 69.2% | viability, T/C [45]: 52.1% | viability, T/C [46]: 30.1% | viability, T/C (second compound 10 µM, first compound 0.000949 µM): 75.8% | viability, T/C (second compound 10 µM, first compound 0.003 µM): 71.8% | viability, T/C [47]: 81.3% | viability, T/C [48]: 61.7% | viability, T/C [49]: 48.9% | viability, T/C [50]: 31%
